Experiments:
[1] = test system: hyperlipidemia mice; experiment: Lipid lowering effects in Tyloxapol-induced hyperlipidemia mice; format: in vivo
Method: Test method: Male and […] mice, Kunming strain, 35 each, weight 18-22 grams, were used. Food and water were available ad libitum. The animals were randomized into 7 groups (n=10). Groups of animals were administered orafly, via a stomach tube, vehicle (distilled water, two groups), R-bambuterol hydrochloride (10 mg/kg and 5 mg/kg), racemic bambuterol hydrochloride (10 mg/kg and 5 mg/kg) and simvastatin (10 mg/kg) once a day for four days. With the exception of one vehicle—treated group (as control), Tyloxapol (400 mg/kg, Sigma Chemical Co.) was injected into the peritoneal cavity of the mice of all groups immediately after the last treatment on the fourth day in order to induce hyperlipidemia. All the animals were fasted overnight prior to the injection of Tyloxapol. Blood samples were collected by cardiac puncture 24 hours after the injection of Tyloxapol. The blood samples were processed to plasma, and concentration of triglycerides (TG), cholesterol (CHO), high density lipoprotein (HDL), low density lipoprotein (LDL) and very low density lipoprotein (VLDL) were measured with an autoblood analyzer (Olympic, Japan).

[2] = Serum concentration of active parent form (terbutaline) after oral dosing; format: in vivo, guinea pig; settings: guinea pigs, 8 mg/kg oral, four hours later
Method: Based on the pharmacokinetic studies of racemic bambuterol hydrochloride, about 50% of absorbed bambuterol is hydrolyzed to terbutaline, the active-parent form, in plasma. There is little cholinesterase in the lung strip preparation, so neither the test compound nor racemic bambuterol has significant effects. In order to test the compound of invention in vitro on isolated guinea-pig lung tissue, R-bambuterol and racemic bambuterol were administrated orally to guinea pigs at a dose of 8 mg/kg. Four hours later, blood was collected from the animals, and the serum containing the active parent form of the test compounds were prepared. The concentration of the active parent form, i.e. terbutaline, in serum measured using BPLC, was 64-70 ng/ml in the animal treated with R-bambuterol and 62-69 ng/ml in the animal treated with racemic bambuterol. The serum containing the active form of test compound was then added into the organ in a certain volume, so that the final concentration of the active forms of test compounds was 0.25 ng/ml in the organ bath. Concentration-response relationships were obtained using a cumulative dose schedule by adding the same volume of the serum into the organ bath. The test using the serum containing the active form of racemic bambuterol was done in parallel with the test compound in the same manner as described above.

## CN(C)C(=O)Oc1cc(OC(=O)N(C)C)cc(C(O)CNC(C)(C)C)c1 (stereo not drawn) [RS-bambuterol, bambuterol]
[1]; Tyl + 10 mg
  CHO lipid level: 125.2 ± 19.8 mg/dL
  HDL lipid level: 50 ± 17 mg/dL
  LDL lipid level: 30 ± 6 mg/dL
  VLDL lipid level: 44.2 ± 14.4 mg/dL
[1]; Tyl + 10 mg (10 mg/kg oral once a day for four days), plasma 24 hours after Tyloxapol
  TG lipid level: 148 ± 45 mg/dL
[2]
  Concentration of the active parent form, terbutaline, in serum: 62 to 69 ng/mL

Reference: patent publication US7495028B2, “R-bambuterol, its preparation and therapeutic uses” (priority 2002, dated 2009)
